Tests used:
[1] = DRUGMATRIX: ATPase, Na+/K+ enzyme inhibition (substrate: ATP); type: tissue-based, Sus scrofa, Heart; details: Not Active = under 50% inhibition at 10 µM
[2] = DRUGMATRIX: Sodium/nucleoside co-transporter radioligand binding (ligand: nitrobenzylthioinosine); type: cell membranes, Cavia porcellus, Dunkin-Hartley, Cerebral cortex, Membrane; details: Not Active = under 50% inhibition at 10 µM
[3] = target: Mitogen-activated protein kinase 3 (Homo sapiens, UniProt P27361); assay: DRUGMATRIX: Protein Serine/Threonine Kinase, ERK1 enzyme inhibition (substrate: Myelin Basic Protein); design: species or system Escherichia coli; details: Not Active = under 50% inhibition at 10 µM
[4] = DRUGMATRIX: Leukotriene, BLT (LTB4) radioligand binding (ligand: [3H]LTB4); type: cell membranes, Membrane; details: u-937; Not Active = under 50% inhibition at 10 µM
[5] = target: T1, Angiotensin-converting enzyme (Oryctolagus cuniculus, UniProt P12822); type: tissue-based, Lung;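 also: enzymatic inhibition of angiotensin-converting enzyme measured with FAPGG as the substrate; in other assays of this panel Not Active means under 50% inhibition at 10 µM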
T1 sequence (P12822 whole entry): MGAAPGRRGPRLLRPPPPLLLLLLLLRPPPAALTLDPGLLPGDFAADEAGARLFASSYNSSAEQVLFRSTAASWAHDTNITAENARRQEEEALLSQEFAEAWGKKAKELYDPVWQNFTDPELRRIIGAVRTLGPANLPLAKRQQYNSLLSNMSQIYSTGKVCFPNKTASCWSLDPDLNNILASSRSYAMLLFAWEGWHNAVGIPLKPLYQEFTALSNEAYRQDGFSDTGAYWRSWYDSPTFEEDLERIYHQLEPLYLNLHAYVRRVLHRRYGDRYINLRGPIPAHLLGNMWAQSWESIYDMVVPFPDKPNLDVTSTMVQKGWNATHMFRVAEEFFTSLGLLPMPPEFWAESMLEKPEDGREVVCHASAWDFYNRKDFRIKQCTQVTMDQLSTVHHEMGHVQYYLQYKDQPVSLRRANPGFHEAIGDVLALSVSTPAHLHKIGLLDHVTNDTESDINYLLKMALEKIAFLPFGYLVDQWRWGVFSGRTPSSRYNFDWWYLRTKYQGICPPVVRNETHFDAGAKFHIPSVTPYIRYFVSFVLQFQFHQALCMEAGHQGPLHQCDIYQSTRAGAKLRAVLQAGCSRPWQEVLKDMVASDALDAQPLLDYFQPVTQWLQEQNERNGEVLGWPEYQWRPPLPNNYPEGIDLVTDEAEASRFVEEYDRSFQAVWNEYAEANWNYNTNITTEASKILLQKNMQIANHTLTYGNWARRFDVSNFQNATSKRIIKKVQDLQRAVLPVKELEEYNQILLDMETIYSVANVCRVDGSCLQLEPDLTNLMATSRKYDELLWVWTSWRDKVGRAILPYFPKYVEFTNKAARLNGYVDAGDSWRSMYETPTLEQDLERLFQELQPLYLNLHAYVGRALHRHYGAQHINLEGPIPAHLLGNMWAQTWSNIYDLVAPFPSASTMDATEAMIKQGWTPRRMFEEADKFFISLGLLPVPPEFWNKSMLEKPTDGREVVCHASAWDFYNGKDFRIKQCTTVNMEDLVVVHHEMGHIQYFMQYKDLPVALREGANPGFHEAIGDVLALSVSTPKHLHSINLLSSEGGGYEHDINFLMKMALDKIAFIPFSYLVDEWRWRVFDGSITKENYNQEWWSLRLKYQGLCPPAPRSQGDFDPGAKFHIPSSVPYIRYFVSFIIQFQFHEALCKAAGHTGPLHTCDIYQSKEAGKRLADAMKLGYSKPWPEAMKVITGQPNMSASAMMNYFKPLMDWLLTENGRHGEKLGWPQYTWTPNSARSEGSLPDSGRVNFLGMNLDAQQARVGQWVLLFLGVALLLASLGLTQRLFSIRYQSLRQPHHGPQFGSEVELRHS

[6] = target: T2, Type-2 angiotensin II receptor (Homo sapiens, UniProt P50052); assay: biochemical; type: cell-based, CHO-K1; details: cho-k1; also: in other assays of this panel Not Active means under 50% inhibition at 10 µM
T2 sequence (P50052 whole entry): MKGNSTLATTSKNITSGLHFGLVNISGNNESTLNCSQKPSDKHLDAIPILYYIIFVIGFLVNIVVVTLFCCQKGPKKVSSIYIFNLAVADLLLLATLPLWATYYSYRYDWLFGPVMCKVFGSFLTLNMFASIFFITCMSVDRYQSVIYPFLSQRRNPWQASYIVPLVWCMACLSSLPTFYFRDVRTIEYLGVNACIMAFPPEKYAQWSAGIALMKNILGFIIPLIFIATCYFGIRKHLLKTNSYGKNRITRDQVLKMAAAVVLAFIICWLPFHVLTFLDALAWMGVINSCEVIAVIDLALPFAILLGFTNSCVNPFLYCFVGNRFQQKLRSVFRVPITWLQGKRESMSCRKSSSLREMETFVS

[7] = target: Mitogen-activated protein kinase 1 (Homo sapiens, UniProt P28482); assay: DRUGMATRIX: Protein Serine/Threonine Kinase, ERK2 enzyme inhibition (substrate: Myelin Basic Protein); design: species or system Escherichia coli; details: Not Active = under 50% inhibition at 10 µM
Sequence of Mitogen-activated protein kinase 1 (P28482 whole entry): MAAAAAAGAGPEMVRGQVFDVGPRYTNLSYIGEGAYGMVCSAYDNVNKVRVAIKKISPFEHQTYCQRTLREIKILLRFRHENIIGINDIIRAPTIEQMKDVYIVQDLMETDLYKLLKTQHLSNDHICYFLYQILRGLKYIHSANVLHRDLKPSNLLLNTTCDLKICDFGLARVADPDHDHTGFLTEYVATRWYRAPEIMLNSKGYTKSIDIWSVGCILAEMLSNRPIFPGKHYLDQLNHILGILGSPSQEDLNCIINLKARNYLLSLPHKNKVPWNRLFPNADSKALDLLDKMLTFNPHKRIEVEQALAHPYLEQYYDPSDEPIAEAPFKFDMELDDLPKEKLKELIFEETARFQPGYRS

Sequence of Mitogen-activated protein kinase 3 (P27361 whole entry): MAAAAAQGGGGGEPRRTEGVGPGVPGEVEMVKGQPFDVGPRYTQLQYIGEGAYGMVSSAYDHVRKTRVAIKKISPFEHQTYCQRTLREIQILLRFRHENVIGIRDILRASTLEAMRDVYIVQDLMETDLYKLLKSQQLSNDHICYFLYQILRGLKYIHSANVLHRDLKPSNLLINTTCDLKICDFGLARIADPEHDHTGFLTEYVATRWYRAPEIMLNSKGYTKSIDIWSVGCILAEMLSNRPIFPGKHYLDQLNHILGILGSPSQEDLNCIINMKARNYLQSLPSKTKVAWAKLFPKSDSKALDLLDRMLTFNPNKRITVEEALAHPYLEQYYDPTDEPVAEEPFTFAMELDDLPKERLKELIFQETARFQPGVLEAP

C[N+](C)(C)C[C@H](O)CC(=O)[O-] [LEVOCARNITINE]
Not Active: IC50 [1] | Ki [1] | IC50 [2] | Ki [2] | IC50 [3] | IC50 [4] | Ki [4] | IC50 [5] | IC50 [6] | IC50 [7]

C[C@H]1COc2c(N3CCN(C)CC3)c(F)cc3c(=O)c(C(=O)O)cn1c23.C[C@H]1COc2c(N3CCN(C)CC3)c(F)cc3c(=O)c(C(=O)O)cn1c23.O [LEVOFLOXACIN]
Not Active: IC50 [1] | Ki [1] | IC50 [2] | Ki [2] | IC50 [3] | IC50 [4] | Ki [4] | IC50 [5] | IC50 [6] | IC50 [7]

CCn1cc(C(=O)O)c(=O)c2cc(F)c(N3CCNC(C)C3)c(F)c21 (stereo not given) [LOMEFLOXACIN]
Not Active: IC50 [1] | Ki [1] | IC50 [2] | Ki [2] | IC50 [3] | IC50 [4] | Ki [4] | IC50 [5] | IC50 [6] | IC50 [7]

CN1CCCC(CN2c3ccccc3Sc3ccccc32)C1 (stereo not given) [MEPAZINE]
Not Active: IC50 [1] | Ki [1] | IC50 [2] | Ki [2] | IC50 [3] | IC50 [4] | Ki [4] | IC50 [5] | IC50 [6] | IC50 [7]

Cc1cccc(C)c1NC(=O)C1CCCCN1C (stereo not given) [MEPIVACAINE]
Not Active: IC50 [1] | Ki [1] | IC50 [2] | Ki [2] | IC50 [3] | IC50 [4] | Ki [4] | IC50 [5] | IC50 [6] | IC50 [7]

CN(C)C(=N)NC(=N)N [METFORMIN]
Not Active: IC50 [1] | Ki [1] | IC50 [2] | Ki [2] | IC50 [3] | IC50 [4] | Ki [4] | IC50 [5] | IC50 [6] | IC50 [7]

CC(C)(C)NCC(O)COc1cccc2c1CC(O)C(O)C2 (stereo not given) [NADOLOL]
Not Active: IC50 [1] | Ki [1] | IC50 [2] | Ki [2] | IC50 [3] | IC50 [4] | Ki [4] | IC50 [5] | IC50 [6] | IC50 [7]

C[C@]12CC[C@H]3[C@@H](CCC4=CC(=O)CC[C@@H]43)[C@@H]1CC[C@@H]2O [NANDROLONE]
Not Active: IC50 [1] | Ki [1] | IC50 [2] | Ki [2] | IC50 [3] | IC50 [4] | Ki [4] | IC50 [5] | IC50 [6] | IC50 [7]

C[C@@H]1C/C=C/C=C/C=C/C=C/[C@H](O[C@@H]2O[C@H](C)[C@@H](O)[C@H](N)[C@@H]2O)C[C@@H]2O[C@](O)(C[C@@H](O)C[C@H]3O[C@@H]3/C=C/C(=O)O1)C[C@H](O)[C@H]2C(=O)O [NATAMYCIN]
Not Active: IC50 [1] | Ki [1] | IC50 [2] | Ki [2] | IC50 [3] | IC50 [4] | Ki [4] | IC50 [5] | IC50 [6] | IC50 [7]

CN(C)C(=O)Oc1cccc([N+](C)(C)C)c1.[Br-] [NEOSTIGMINE BROMIDE]
Not Active: IC50 [1] | Ki [1] | IC50 [2] | Ki [2] | IC50 [3] | IC50 [4] | Ki [4] | IC50 [5] | IC50 [6] | IC50 [7]

NC(=O)c1cccnc1 [NIACINAMIDE]
Not Active: IC50 [1] | Ki [1] | IC50 [2] | Ki [2] | IC50 [3] | IC50 [4] | Ki [4] | IC50 [5] | IC50 [6] | IC50 [7]

CS(=O)(=O)Nc1ccc([N+](=O)[O-])cc1Oc1ccccc1 [NIMESULIDE]
Not Active: IC50 [1] | Ki [1] | IC50 [2] | Ki [2] | IC50 [3] | IC50 [4] | Ki [4] | IC50 [5] | IC50 [6] | IC50 [7]

CN1C(=O)CN=C(c2ccccc2)c2cc([N+](=O)[O-])ccc21 [NIMETAZEPAM]
Not Active: IC50 [1] | Ki [1] | IC50 [2] | Ki [2] | IC50 [3] | IC50 [4] | Ki [4] | IC50 [5] | IC50 [6] | IC50 [7]

COc1ccc2c(c1OC)C(=O)O[C@@H]2[C@H]1c2c(cc3c(c2OC)OCO3)CCN1C [NOSCAPINE]
Not Active: IC50 [1] | Ki [1] | IC50 [2] | Ki [2] | IC50 [3] | IC50 [4] | Ki [4] | IC50 [5] | IC50 [6] | IC50 [7]
